In experiment [1] the target is T1, Nociceptin receptor (Homo sapiens, UniProt P41146). Kind of experiment: Agonist activity at human NOP receptor transfected in CHO cells assessed as stimulation of [35S]GTPgammaS at 1 uM. It counts as functional, cell-based. Background: GTPγS is a poorly hydrolysed GTP analogue; its binding reports G protein activation.
For experiment [2], the target named is Delta-type opioid receptor (Homo sapiens, UniProt P41143). Kind of experiment: Displacement of [3H]diprenorphine from human DOP receptor expressed in CHO cell membrane. The format is cell membranes. A general note: Loss of bound radioactivity is the signal in a displacement assay; it reports binding, not function.
Sequence of Delta-type opioid receptor (P41143 whole entry): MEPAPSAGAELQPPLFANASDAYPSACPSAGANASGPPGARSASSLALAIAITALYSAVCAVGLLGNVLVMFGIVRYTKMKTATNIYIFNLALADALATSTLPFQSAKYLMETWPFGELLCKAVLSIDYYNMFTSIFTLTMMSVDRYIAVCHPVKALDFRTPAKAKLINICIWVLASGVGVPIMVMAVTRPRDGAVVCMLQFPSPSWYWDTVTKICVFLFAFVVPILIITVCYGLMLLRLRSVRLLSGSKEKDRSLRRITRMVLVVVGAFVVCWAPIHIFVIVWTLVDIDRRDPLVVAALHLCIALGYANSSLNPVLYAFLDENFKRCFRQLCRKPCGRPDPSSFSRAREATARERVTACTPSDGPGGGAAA
The target of experiment [3] is T1, Nociceptin receptor. Kind of experiment: Displacement of [125I][Tyr14]nociceptin FQ from human NOP receptor expressed in CHO cell membrane. The format is cell membranes.
The target in a further experiment is Mu-type opioid receptor (Homo sapiens, UniProt P35372). Kind of experiment: Displacement of [3H]diprenorphine from human MOP receptor expressed in CHO cell membrane. It counts as cell membranes.
Sequence of Mu-type opioid receptor (P35372 whole entry): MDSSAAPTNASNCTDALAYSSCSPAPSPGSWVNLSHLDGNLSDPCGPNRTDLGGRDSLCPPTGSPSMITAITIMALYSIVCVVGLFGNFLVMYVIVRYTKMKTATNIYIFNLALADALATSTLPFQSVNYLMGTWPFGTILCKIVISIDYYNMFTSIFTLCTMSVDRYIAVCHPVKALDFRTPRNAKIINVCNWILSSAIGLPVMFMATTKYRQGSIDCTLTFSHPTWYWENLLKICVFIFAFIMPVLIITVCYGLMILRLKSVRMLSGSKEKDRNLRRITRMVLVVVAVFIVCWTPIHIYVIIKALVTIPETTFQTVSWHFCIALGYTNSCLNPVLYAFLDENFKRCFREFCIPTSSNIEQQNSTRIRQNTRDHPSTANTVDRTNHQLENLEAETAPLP
Experiment [4] has as its target Kappa-type opioid receptor (Homo sapiens, UniProt P41145). Kind of experiment: Displacement of [3H]diprenorphine from human KOP receptor expressed in CHO cell membrane. It counts as cell membranes.
The target in experiment [5] is T1, Nociceptin receptor. Kind of experiment: Agonist activity at human NOP receptor transfected in CHO cells assessed as stimulation of [35S]GTP-gamma-S at 0.1 uM. It counts as functional, cell-based.
In experiment [6] the target is T1, Nociceptin receptor. Kind of experiment: Activity at human NOP receptor transfected in CHO cells assessed as inhibition of [35S]GTP-gamma-S at 1 uM. The format is functional, cell-based.
The target of experiment [7] is T1, Nociceptin receptor. Kind of experiment: Agonist activity at human NOP receptor transfected in CHO cells assessed as stimulation of [35S]GTP-gamma-S at 100 uM. The format is functional, cell-based.
Experiment [8] has as its target T1, Nociceptin receptor. Kind of experiment: Activity at human NOP receptor transfected in CHO cells assessed as inhibition of [35S]GTPgammaS at 10 uM. It counts as functional, cell-based.

Sequence of Kappa-type opioid receptor (P41145 whole entry): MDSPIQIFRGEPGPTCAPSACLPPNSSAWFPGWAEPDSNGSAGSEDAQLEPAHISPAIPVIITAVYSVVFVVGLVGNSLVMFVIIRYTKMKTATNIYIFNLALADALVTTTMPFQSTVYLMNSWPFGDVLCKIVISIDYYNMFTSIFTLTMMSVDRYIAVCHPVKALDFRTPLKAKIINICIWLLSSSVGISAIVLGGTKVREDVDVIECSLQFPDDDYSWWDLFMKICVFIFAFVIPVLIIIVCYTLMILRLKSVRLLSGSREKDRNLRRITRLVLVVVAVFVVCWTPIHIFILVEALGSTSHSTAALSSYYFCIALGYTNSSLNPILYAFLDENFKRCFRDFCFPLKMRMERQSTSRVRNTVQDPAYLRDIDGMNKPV
T1 sequence (P41146 whole entry): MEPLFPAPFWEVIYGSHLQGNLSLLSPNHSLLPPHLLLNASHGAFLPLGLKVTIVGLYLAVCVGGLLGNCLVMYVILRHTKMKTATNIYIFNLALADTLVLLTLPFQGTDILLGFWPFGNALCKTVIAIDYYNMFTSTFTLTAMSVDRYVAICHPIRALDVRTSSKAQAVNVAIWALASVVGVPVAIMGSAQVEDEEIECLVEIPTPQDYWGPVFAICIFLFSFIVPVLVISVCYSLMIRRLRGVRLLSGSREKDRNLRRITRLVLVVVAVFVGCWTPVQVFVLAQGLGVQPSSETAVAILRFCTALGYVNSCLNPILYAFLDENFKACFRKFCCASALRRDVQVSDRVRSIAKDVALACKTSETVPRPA

By Ki is commonly meant the equilibrium dissociation constant of an inhibitor or competing ligand from its target. A higher Ki goes with weaker binding. Turning to `NCc1ccccc1C1(O)CCN(C(c2ccccc2Br)c2ccccc2Br)CC1`, the Activity at Nociceptin receptor [1] was determined as 104%. For the same compound, the Ki turned out to be 3200 nM in experiment [2], 1.8 nM at Nociceptin receptor [3], 616 nM on Mu-type opioid receptor and 278 nM in experiment [4].

As for `NCc1ccccc1C1(O)CCN(C(c2ccccc2)c2ccccc2Cl)CC1` (stereo not given), the Ki was determined as 3700 nM in [2], 0.5 nM at Nociceptin receptor [3], 72 nM at Mu-type opioid receptor and 425 nM in experiment [4]. Further, the Activity on Nociceptin receptor [5] was found to be 116%.

As usually defined, the inhibition is the drop in the measured response relative to a control, in per cent. As to `NCc1ccccc1C1(O)CCN(CC2CCCCCC2)CC1`, the Ki turned out to be 99500 nM in [2], 4.6 nM at Nociceptin receptor [3], 452 nM on Mu-type opioid receptor and 664 nM in experiment [4]. For the same compound, the inhibition at Nociceptin receptor [6] came out at 67%.

Consider `OC1(c2cccc(F)c2)CCN(C(c2ccccc2)c2ccccc2)CC1`, for which the Ki in [2] was determined as 5610 nM; at Nociceptin receptor [3] it was 23 nM; at Mu-type opioid receptor, 705 nM; in experiment [4] it was 1990 nM. In addition, the Activity on Nociceptin receptor [7] came out at 61%.

As for `Cc1ccccc1C(c1ccccc1C)N1CCC(O)(c2ccccc2CN)CC1`, the Activity on Nociceptin receptor [1] came out at 94%. Further, the Ki in [2] stood at 8440 nM; on Nociceptin receptor [3], 0.5 nM; at Mu-type opioid receptor, 190 nM; in experiment [4], 450 nM.

`NCc1ccccc1C1(O)CCN(C(c2ccccc2)c2ccccc2Br)CC1` (stereo not given): the Activity on Nociceptin receptor [1] stood at 115%. Also, the Ki was determined as 3290 nM in experiment [2], 1.1 nM on Nociceptin receptor [3], 72 nM on Mu-type opioid receptor and 279 nM in [4].

Take `Cc1ccccc1C(c1ccccc1)N1CCC(O)(c2ccccc2CN)CC1` (stereo not given): the Ki worked out at 2870 nM in [2], 0.7 nM at Nociceptin receptor [3], 28 nM on Mu-type opioid receptor and 725 nM in [4]. Besides, the Activity at Nociceptin receptor [5] is 119%.

For the compound `OC1(C2CCCCC2)CCN(C(c2ccccc2)c2ccccc2)CC1`, the Ki amounted to 8110 nM in experiment [2], 17 nM at Nociceptin receptor [3], 407 nM on Mu-type opioid receptor and 387 nM in [4]. Moreover, the Activity on Nociceptin receptor [7] was determined as 121%.

`Cc1ccccc1C1(O)CCN(C(c2ccccc2)c2ccccc2)CC1`: the Ki in experiment [2] was 1670 nM; on Nociceptin receptor [3], 11 nM; on Mu-type opioid receptor, 74 nM; in [4], 818 nM. The Activity at Nociceptin receptor [7] stood at 69%.

As for `CC1(C)CCC(N2CCC(O)(c3ccccc3CN)CC2)c2ccccc21` (stereo not given), the Ki stood at 23400 nM in experiment [2], 5.5 nM on Nociceptin receptor [3], 181 nM on Mu-type opioid receptor and 1350 nM in experiment [4]. Also, the inhibition on Nociceptin receptor [8] is 43%.

Values taken from ChEMBL document CHEMBL1147989, “Synthesis and structure-activity relationships of 4-hydroxy-4-phenylpiperidines as nociceptin receptor ligands: Part 2” (Bioorg Med Chem Lett, 2007).
